Results taken from US5922681A, “Endothelin antagonists” (Warner-Lambert Company, priority 1992, dated 1999).
Non-standard residues stand in square brackets, D forms with d. Residues, ends and D or L forms follow the SMILES beside them. No end group written: not given here.

Assays:
[1] = molecular target: endothelin receptor (Rat Heart); experiment: [125I]-ET-1 receptor binding, Rat Heart
Method: (§1) The compounds of Formula I are valuable antagonists of endothelin. […] Compounds of Formula I were tested for their ability to inhibit [^125 I]-ET-1([^125 I]-Endothelin-1) binding in a receptor assay according to the following procedures Doherty, A. M., et al, J. Cardiovascul. Pharmacol. 17(Suppl 7):S59-61 (1991) and Doherty, A. M., et al, Bio. Org.

[2] = molecular target: endothelin receptor (Human Placenta); experiment: [125I]-ET-1 receptor binding, Human Placenta
Method: as §1

[3] = tested on: endothelin-stimulated arachidonic acid release in cultured vascular smooth muscle cells; experiment: AAR assay for antagonist activity; format: cell-based, rabbit; details: ET-1 0.3 nM
Method: AAR Assay for Antagonist Activity
Antagonist activity is measured by the ability of added compounds to reduce endothelin-stimulated arachidonic acid release in cultured vascular smooth muscle cells as arachidonic acid release (AAR). [^3 H] Arachidonic Acid Loading Media (LM) is DME/F12+0.5% FCS×0.25 mCi/mL [^3 H] arachidonic acid (Amersham). Confluent monolayers of cultured rabbit renal artery vascular smooth muscle cells were incubated in 0.5 mL of the LM over 18 hours, at 37° C., in 5% CO2. The LM was aspirated and the cells were washed once with the assay buffer (Hank's BSS+10 mM HEPES+fatty acid-free BSA (1 mg/mL), and incubated for 5 minutes with 1 mL of the prewarmed assay buffer. This solution was aspirated, followed by an additional 1 mL of prewarmed assay buffer, and further incubated for another 5 minutes. A final 5-minute incubation was carried out in a similar manner. […] This solution was then collected, […] of scintillation cocktail was added, and the amount of [^3 H] arachidonic acid was determined in a liquid scintillation counter.

[4] = tested on: ET-1-induced vasoconstriction; details: isolated porcine coronary arteries; cited from earlier work
[5] = tested on: ETA receptor over the ETB subtype; details: cited from earlier work
[6] = tested on: endothelin-induced arachidonic acid release in vascular smooth muscle cells (ETA); details: cited from earlier work
[7] = tested on: endothelin-stimulated constriction in the rabbit femoral renal (ETA), and pulmonary arteries (ETB); details: cited from earlier work
ETB = details: isolated, endothelium-intact porcine pulmonary arteries; cited from earlier work
ET receptor = details: cited from earlier work
[8] = tested on: ET-1-induced vasoconstriction; details: isolated rabbit aorta; cited from earlier work
pressor response to ET-1 = details: IV bolus 1 mg/kg; cited from earlier work
ET-1-induced arrythmia = details: rats; cited from earlier work
[9] = tested on: vasoconstriction of the basilar artery; details: canine subarachnoid hemorrhage, intracisternal 0.1 mg; cited from earlier work

## C[C@@](Cc1c[nH]c2ccccc12)(NC(=O)OC1C2CC3CC(C2)CC1C3)C(=O)N[C@H](CC(=O)O)Cc1ccccc1 (relative stereo) [Compound 4, [S-(R*,R*)]-β-[[3-(1H-indol-3-yl)-2-methyl-1-oxo-2-[[(tricyclo[3.3.1.1^3,7]dec-2-yloxy)carbonyl]-amino]propyl]amino]benzenebutanoic acid]
[1]
  IC50: 47.3 µM
[2]
  IC50: 58.3 µM
[3]
  AAR IC50 (μM) (Antag) % inhib at 10 μM: 62.4%

## CC(C)C[C@@H]1NC(=O)[C@@H](C(C)C)NC(=O)[C@@H]2CCCN2C(=O)[C@@H](CC(=O)O)NC(=O)[C@@H](Cc2c[nH]c3ccccc23)NC1=O [BQ-123] (cyclo(L[dW][dD]P[dV]))
[4]
  Antagonism of ET-1-induced vasoconstriction: antagonize

## Ac-(β-phenyl)D-Phe-L-Leu-L-Asp-L-lle-L-lle-L-Trp trifluoroacetate [PD 142893]
[5]
  Binding selectivity for the ETA receptor over the ETB subtype: tenfold
[6]
  Antagonism of endothelin-induced arachidonic acid release: functional antagonist
[7]
  Antagonism of endothelin-stimulated constriction: antagonizes

## ET[1,3,11,15-Ala]: linear ET analog, reported selective ETB agonist (ASASSLMDKEAVYFAHLDIIW; Endothelin-1; UniProt P05305 53-73, looked up, variant C1A C3A C11A C15A)
ETB
  Vasorelaxation: caused vasorelaxation

## ET[1-20]: ET-1 lacking the C-terminal amino acid (Trp-21) (CSCSSLMDKECVYFCHLDII; ends and bridges not checked; cysteine pairing not given here; UniProt P05305 53-72, looked up, fragment)
ET receptor
  Functional / vasoconstrictor activity, fold less: approximately 1000 fold

## ET[6-21, 1,3,11,15-Ala]
ETB
  Vasorelaxation: caused vasorelaxation

## ET[8-21,11,15-Ala]
ETB
  Vasorelaxation: caused vasorelaxation

## FR 139317
[8]
  pA2, inhibition of ET-1-induced vasoconstriction: 7.2
Pressor response to ET-1
  Initial depressor response to ET-1: no effect
  Pressor response to ET-1: completely inhibited
ET-1-induced arrythmia
  ET-1-induced arrythmia: suppressed
[9]
  Vasoconstriction of the basilar artery after 7 days: significantly inhibited

## N-acetyl-ET[10-21]: truncated ET analog, reported selective ETB agonist (Ac-ECVYFCHLDIIW; cysteine pairing not given here; UniProt P05305 62-73, looked up, fragment)
ETB
  Vasorelaxation: caused vasorelaxation
